# In article PMC6367340, “Novel insights into P450 BM3 interactions with FDA-approved antifungal azole drugs” (Scientific Reports, 2019):
# “Also recorded” adds a separate entry of the source. Like-named read-outs stand apart in the source and are kept apart here.
# What was measured:
# [1] = target: T1, BM3 A82F/F87V double mutant (DM) heme domain (Priestia megaterium, UniProt P14779, A83F/F88V); experiment: biochemical; assay type: binding, Bacillus megaterium; conditions: for Delta Abs Peak (wavelength maximum of absorbance difference spectrum) / Delta Abs Trough (wavelength minimum of absorbance difference spectrum) / Delta Abs/Soret Peak / Soret Shift (final Soret wavelength at apparent saturation): DM BM3 heme domain; for Delta Abs/Soret Peak: maximal peak-minus-trough value divided by P450 Soret peak value; for Soret Shift (final Soret wavelength at apparent saturation): starting wavelength 418 nm
# T1 construct: The BM3 heme domain proteins (WT and the DM A82F/F87V variant) used in this study were expressed as described in our previous studies; made in house; host or cells: E. coli BL21 (DE3)
# T1 sequence (P14779 2-472 A83F/F88V): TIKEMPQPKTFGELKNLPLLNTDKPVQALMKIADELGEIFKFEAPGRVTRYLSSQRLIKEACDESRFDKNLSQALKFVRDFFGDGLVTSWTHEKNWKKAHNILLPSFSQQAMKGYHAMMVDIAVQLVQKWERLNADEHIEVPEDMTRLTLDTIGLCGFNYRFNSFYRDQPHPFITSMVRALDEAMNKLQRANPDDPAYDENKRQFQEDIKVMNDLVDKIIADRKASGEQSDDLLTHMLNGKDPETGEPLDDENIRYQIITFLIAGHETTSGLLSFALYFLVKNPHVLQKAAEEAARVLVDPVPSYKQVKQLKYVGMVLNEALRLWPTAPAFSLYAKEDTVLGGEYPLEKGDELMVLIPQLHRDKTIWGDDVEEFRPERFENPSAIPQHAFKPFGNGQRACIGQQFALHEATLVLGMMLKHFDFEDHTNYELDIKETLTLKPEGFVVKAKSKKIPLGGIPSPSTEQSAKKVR
# Excerpt: (§1) This leads to dioxygen (O2) binding to heme iron and to the progression of the P450 catalytic cycle that leads to monooxygenation of the substrate. […] P450 UV-visible binding assays and other spectroscopic studies using azoles are often hindered by the low solubility of many of these drugs. […] The azoles used range widely in size and structure, and contain either an imidazole or a triazole functional group (or two triazole groups in the case of fluconazole). […] Spectral binding data were fitted using hyperbolic (Michaelis-Menten)[30] or tight-binding (Morrison)[31] equations, or by using the Hill function[32] in cases where there was a clear sigmoidal dependence of heme absorbance change on azole drug concentration.
# (§2) Experiments were performed using a Cary 50 UV-Visible spectrophotometer (Agilent Technologies Ltd). WT and DM heme domains at concentrations of ~2–4 μM were used, and binding titrations were done by the addition of small (typically 0.2–0.4 μL) volumes of azole ligand stocks (1, 10 or 30 mM, to minimize amounts of solvent carrier used) to a 1 mL heme domain sample in a quartz cuvette. An extinction coefficient of 95 mM^−1 cm^−1 was used for the low-spin forms of the WT and DM heme domains. […] Azole drugs were obtained from Merck Chemicals (Nottingham, UK). All azole compounds used in these and other experiments done in this manuscript were sourced from Sigma Aldrich (Cambridge, UK).
# (§3) Data were processed by the subtraction of the spectrum of each successive ligand-bound form (from a specific titration set) from the spectrum of the ligand-free enzyme. This produced a set of difference spectra (for each particular azole titration), from which wavelengths associated with the absorbance minimum (Amin) and maximum (Amax) were readily identified. For each titration point, an absorbance difference value was calculated as Amax minus Amin, using the same wavelength pair throughout an individual experiment. These values were then plotted against the relevant azole ligand concentrations used. […] Assays were done using 25 mM KPi (pH 7) at a constant temperature of 30 °C.
# WT BM3 heme domain = target: T2, WT BM3 heme domain (Priestia megaterium, UniProt P14779); experiment: biochemical; assay type: binding, Bacillus megaterium; conditions: for Delta Abs/Soret Peak: maximal peak-minus-trough value divided by P450 Soret peak value; for Soret Shift (final Soret wavelength at apparent saturation): starting wavelength 418 nm
# T2 construct: The BM3 heme domain proteins (WT and the DM A82F/F87V variant) used in this study were expressed as described in our previous studies; made in house; host or cells: E. coli BL21 (DE3)
# T2 sequence (P14779 2-472): as the sequence (P14779 2-472 A83F/F88V) above, with F82A, V87F counted along it
# Excerpt: as §1, §2, §3
# P450 BM3 (CYP102A1) = test system: P450 BM3 (CYP102A1); design: method as in PMID 10191269; conditions: arachidonic acid as the substrate; cited from earlier work
# [2] = DM (A82F/F87V) BM3 heme domain, 25 mM KPi pH 7, 30 °C
Structure (SMILES),Delta Abs Peak (wavelength maximum of absorbance difference spectrum) [1],Delta Abs Trough (wavelength minimum of absorbance difference spectrum) [1],Delta Abs/Soret Peak [1],Soret Shift (final Soret wavelength at apparent saturation) [1],"Kd [1, 2]",Soret spectral shift / heme absorbance change on titration (in words) (WT BM3 heme domain; WT BM3 heme domain),Kd (WT BM3 heme domain),Delta Abs Peak (wavelength maximum of absorbance difference spectrum) (WT BM3 heme domain; WT BM3 heme domain),Delta Abs Trough (wavelength minimum of absorbance difference spectrum) (WT BM3 heme domain; WT BM3 heme domain),Delta Abs/Soret Peak (WT BM3 heme domain; WT BM3 heme domain),Soret Shift (final Soret wavelength at apparent saturation) (WT BM3 heme domain; WT BM3 heme domain),Tighter binding to DM heme domain than to WT heme domain ([1]; DM versus WT heme domain),"Kd (WT BM3 heme domain; Kd, WT BM3 heme domain, 25 mM KPi pH 7, 30 °C, NB = no binding seen in UV-visible spectroscopic titrations)",catalytic rate for substrate oxidation (P450 BM3 (CYP102A1)),"Kd ([1]; DM enzyme, Figure S1 legend, tight-binding (Morrison) fit)"
CCC(C)n1ncn(-c2ccc(N3CCN(c4ccc(OCC5COC(Cn6cncn6)(c6ccc(Cl)cc6Cl)O5)cc4)CC3)cc2)c1=O (stereo not drawn) [Itraconazole],438 nm,414 nm,0.16,421 nm,50 ± 10 nM,failed to induce a Soret spectral shift of sufficient extent to allow Kd determination; also recorded: no significant spectral shifts,–,–,–,–,–,–,–,–,–
C[C@@H](c1nc(-c2ccc(C#N)cc2)cs1)[C@](O)(Cn1cncn1)c1ccc(F)cc1F [Ravuconazole],434 nm,413 nm,0.21,422 nm,340 ± 20 nM,failed to induce a Soret spectral shift of sufficient extent to allow Kd determination; also recorded: no significant spectral shifts,–,–,–,–,–,–,–,–,–
Clc1ccc(C(Cn2ccnc2)OCc2c(Cl)cccc2Cl)c(Cl)c1 (stereo not drawn) [Isoconazole nitrate],435 nm,415 nm,–,–,440 ± 20 nM,–,12000 ± 500 nM,436 nm,415 nm,–,–,–,–,–,–
Clc1ccc(C(Cn2ccnc2)OCc2ccc(Sc3ccccc3)cc2)c(Cl)c1 (stereo not drawn) [Fenticonazole nitrate],434 nm,414 nm,0.44,424 nm,520 ± 30 nM,–,1890 ± 50 nM,434 nm,415 nm,0.21,419 nm,–,–,–,–
CC[C@@H]([C@H](C)O)n1ncn(-c2ccc(N3CCN(c4ccc(OC[C@@H]5CO[C@@](Cn6cncn6)(c6ccc(F)cc6F)C5)cc4)CC3)cc2)c1=O [Posaconazole],430 nm,395 nm,0.41,422 nm,2690 ± 50 nM,failed to induce a Soret spectral shift of sufficient extent to allow Kd determination; also recorded: no significant spectral shifts,–,–,–,–,–,–,–,–,–
C[C@@H](c1ncncc1F)[C@](O)(Cn1cncn1)c1ccc(F)cc1F [Voriconazole],435 nm,414 nm,0.21,420 nm,1900 ± 130 nM,failed to induce a Soret spectral shift of sufficient extent to allow Kd determination,–,–,–,–,–,–,–,–,–
Clc1ccc(C(Cn2ccnc2)OCc2csc3c(Cl)cccc23)c(Cl)c1 (stereo not drawn) [Sertaconazole nitrate],433 nm,413 nm,0.45,423 nm,460 ± 10 nM,–,2440 ± 140 nM,439 nm,416 nm,0.08,419 nm,–,–,–,–
Clc1ccc(C(Cn2ccnc2)OCc2ccsc2Cl)c(Cl)c1 (stereo not drawn) [Tioconazole],434 nm,414 nm,0.44,423 nm,390 ± 30 nM,–,–,434 nm,414 nm,0.29,422 nm,~ 50 fold,24500 ± 1100 nM,–,–
Clc1ccc(CCC(Cn2ccnc2)Sc2c(Cl)cccc2Cl)cc1 (stereo not drawn) [Butoconazole nitrate],433 nm,413 nm,0.47,424 nm,470 ± 20 nM,–,3800 ± 120 nM,434 nm,413 nm,0.35,422 nm,–,–,–,–
CCCCC/C=C\C/C=C\C/C=C\C/C=C\CCCC(=O)O [arachidonic acid],–,–,–,–,–,–,–,–,–,–,–,–,–,~ 285 s^−1,–
OC(Cn1cncn1)(Cn1cncn1)c1ccc(F)cc1F [Fluconazole],434 nm,414 nm,0.19,421 nm,2910 ± 200 nM,failed to induce a Soret spectral shift of sufficient extent to allow Kd determination,–,–,–,–,–,–,–,–,–
c1ccc(-c2ccc(C(c3ccccc3)n3ccnc3)cc2)cc1 (stereo not drawn) [Bifonazole],436 nm,413 nm,0.42,425 nm,130 ± 50 nM,–,3540 ± 50 nM,434 nm,413 nm,0.43,423 nm,–,–,–,130 ± 20 nM
CC(C)(C)C(=O)C(Oc1ccc(Cl)cc1)n1ccnc1 (stereo not drawn) [Climbazole],430 nm,408 nm,0.50,424 nm,320 ± 10 nM,–,1520 ± 20 nM,433 nm,413 nm,0.43,424 nm,–,–,–,–
